Measurements as given in article PMC4912613, “A broad analysis of resistance development in the malaria parasite” (Nature Communications, 2016).
Where two headings read alike, the source gives them in different places.

Columns and labels:
[1] = test system: TM90C2A (DHFR, folate pathway; compared with 3D7); assay: Cross-resistance EC50 assay, TM90C2A; assay type: cell-based; conditions: Plasmodium falciparum, 48 h, read-out: TM90C2A (3D7 Parent) Average EC50
From the text: To evaluate potential overlapping activity against known antimalarial drug targets, we performed dose-response studies with each compound against our assembled set of drug-resistant lines and their corresponding parents, in an asexual blood stage proliferation assay (Table 1). Comparisons were made to the drug-sensitive strain 3D7 when a parent was unavailable (TM90C2A, W2 and Dd2). As laboratories conducted EC50 assays with different strains and protocols, all comparisons were made between assays from the same laboratory and under the same assay conditions. Compounds displaying >5-fold EC50 shifts relative to the parent or sensitive strain were flagged as having potentially non-novel targets. Average fold shifts per strain ranged from 0.82 to 2.34, with a median of 1.23 indicating there was not common resistance to any one resistant clone. No resistance patterns were observed when classifying the compounds based on chemical structure, but this was not surprising given the diversity of compounds chosen. On the other hand, given that these confirmed compounds were derived from larger unconfirmed hit lists to which some filtration criteria may have been applied (for example, elimination of obvious dihydrofolate reductase inhibitors[32]), some[10][11][12][13] pre-existing bias may exist in the set.
The 48-h assay was carried out in a 96-well format following standard methods using the ^3H-hypoxanthine incorporation assay. The raw EC50 values corresponding to this assay can be found in Supplementary Data 3. Briefly, this assay relies on the parasite incorporation of labelled hypoxanthine that is proportional to P. falciparum growth. A culture of parasitized RBCs (0.5% parasitemia with a percentage of ring stage higher than 70% of total parasitemia, 2.0% haematocrit) in RPMI-1640, […] and 5 μM hypoxanthine was exposed to drug serial dilutions. Plates were incubated for 24 h at 37 °C, 5% CO2, 5% O2 and 90% N2. After 24 h of incubation, ^3H-hypoxanthine was added and plates were incubated for an additional 24-h period. After that, parasites were harvested on a glass fibre filter using a TOMTEC Cell Harvester 96. Filters were dried and melt-on scintillator sheets were used to determine the incorporation of ^3H-hypoxanthine. Radioactivity was measured using a microbeta counter. Data were normalized using the incorporation of the positive (parasitized RBCs without drug) and negative (same culture with artesunate at 2 μM) controls. All assays were conducted in triplicate using three independently grown cultures, and EC50 values were determined using the XLfit add-in module for Excel (version 2.3.1) from Grafit (version 5.3.1.3), where parameter h is the assay hill slope, x is the compound concentration and y is the inhibition of growth effect. The XLfit equation is: […]
EC50 values for each strain were compared with those of the corresponding parent strain to determine fold-shift changes and identify resistance. To minimize the cause variance between assays, all comparisons were conducted between strains assayed under identical conditions. A one-way ANOVA followed by a Dunnet's post-test was conducted in GraphPad Prism to identify significant changes between the parent and resistant strain.

[2] = test system: P. berghei exoerythrocytic forms; assay: Liver-stage P. berghei hepatocyte invasion and development assay (luminescence, HepG2); assay type: cell-based, Plasmodium berghei; conditions: for EC50: Plasmodium berghei, HepG2, 48 h, read-out: Liver Stage EC50; for EC50 fold shift compared to asexual stage: Liver Stage EC50: liver stage EC50 / 3D7 EC50
From the text: As drugs that eliminate multiple stages of the parasite lifecycle will be critical components in global efforts to eliminate malaria, we were interested in knowing whether the compounds in our study had additional activities against either the liver and/or transmission stages of the parasite lifecycle. To determine this, we first evaluated the compounds in additional phenotypic assays. The first assay was a P. berghei hepatocyte invasion and development assay, which predicts causal prophylactic activity. Hepatocyte toxicity was additionally tested to identify false-positive activity in the liver stage due to host-cell toxicity. Assays were executed in duplicate using a 12-point EC50 curve at starting concentrations of 5 μM or 50 μM (Supplementary Table 1).
Liver-stage activity was determined by pretreating hepatic human cells (HepG2) for 2 h with compound in 1,536-well plates infected with freshly dissected P. berghei sporozoites. After 48 h of incubation, the viability of P. berghei exoerythrocytic forms was measured by luminescence reaction light output using BrightGlo (Promega). Varying levels of compound concentration were used (5 μM or 50 μM) due to the stock concentration supplied.

SMILES | EC50 [1] | EC50 ([2]; P. berghei sporozoites) | EC50 fold shift compared to asexual stage: Liver Stage EC50 [2] | EC50 [2]
CCN(CC)CCn1c(=N)n(CC(O)c2ccc(Cl)c(Cl)c2)c2ccccc21.Cl (stereo not drawn) [MMV000248] | 466 nM | 5550 nM | 18.14 | 
Cc1cc(Nc2ccc(OCc3ccccc3)cc2)nc2cc(O)ccc12 [MMV007181] | 278 nM | 4790 nM | 13.83 | 
CN(C)Cc1ccc(-c2cc3c(-c4ccc(CN(C)C)cc4)ccnc3[nH]2)cc1.O=C(O)C(F)(F)F [MMV022224] | 738 nM | 801 nM |  | 
CN1CCN(c2ccc(Nc3c4ccccc4nc4ccccc34)cc2)CC1 [MMV006172] | 162 nM | 2060 nM |  | 
Nc1ccc(-c2nc3cc(Cc4ccc5[nH]c(-c6ccc(N)cc6)nc5c4)ccc3[nH]2)cc1 [MMV665943] | 298 nM | 5950 nM | 18.84 | 
c1cc(-c2cnc3ccc(-c4ccc(N5CCOCC5)cc4)nn23)ccn1 [MMV668311] | 86 nM | 2250 nM | 46.90 | 
OC(CNC1CCCCC1)Cn1c2ccccc2c2ccccc21 (stereo not drawn) [MMV009063] | 537 nM | > 5000 nM | > 6.3 | 
O=C(Nc1ccc(Cl)c(Cl)c1)Nc1ccc(Cl)c(Cl)c1 [MMV665852] | 566 nM | 343 nM |  | 
Nc1ccc(-c2nc3cc(Oc4ccc(Oc5ccc6[nH]c(-c7ccc(N)cc7)nc6c5)cc4)ccc3[nH]2)cc1 [MMV011895] | 356 nM | > 50000 nM | > 300 | 
COc1ccc(NC(=O)N2CCCCN3[C@H](CN)[C@H](c4ccc(C#Cc5ccccc5)cc4)[C@@H]3C2)cc1 [BRD1095] |  | 82.6 nM | 2.07 | 
CCCN(CCC)CC(O)COc1ccccc1C(=O)Nc1ccccc1 (stereo not drawn) [MMV006455] | 377 nM | > 5000 nM | > 9.4 | 
COCCNCC(O)Cn1c2ccc(Cl)cc2c2cc(Cl)ccc21 (stereo not drawn) [MMV019017] | 868 nM | > 5000 nM | > 10 | 
Cc1ccc(Cn2c(N3CCC(C(=O)NCc4cccs4)CC3)nc3ccccc32)cc1 [MMV007564] | 655 nM | 1510 nM | 2.60 | 
COc1ccc2c3c([nH]c2c1)[C@H](CO)N(C(C)=O)CC31CCN(C(=O)Nc2ccccc2F)CC1 [MMV673482] | 352 nM |  |  | 
CC(NCc1ccccc1)c1cc(Cl)ccc1O (stereo not drawn) [MMV665789] | 1480 nM | > 5000 nM | > 4 | 
COc1ccc(-c2nc(NC(=O)Cc3ccc4c(c3)OCCO4)sc2C)cc1 [MMV019719] | 210 nM | 10500 nM | 63.78 | 
CCC(C)NCC(O)(c1ccc(Cl)cc1)c1ccc(Cl)cc1 (stereo not drawn) [MMV665928] | 432 nM | > 5000 nM | > 10 | 
COc1cc(-c2nc(-c3ccccc3)c(-c3ccccc3)[nH]2)cc(OC)c1O [MMV020750] | 674 nM | > 5000 nM | 23.86 | 
COc1ccc(N2CCN(C(CNC(=O)C3CCCCC3)c3ccc4c(c3)OCO4)CC2)cc1 (stereo not drawn) [MMV019662] | 209 nM | 18900 nM | 55.47 | 
CC(C)(C)OC(=O)N1CCN(c2ccccc2NC(=O)c2cccc(C(F)(F)F)c2Oc2ccc(F)cc2)CC1 [MMV030666] | 544 nM | 613 nM | 1.26 | 
CNCc1ccc2nc(-c3coc(Cc4cc(Cl)ccc4OCC(C)C)n3)[nH]c2c1.Cl.Cl [MMV026596] | 267 nM | 6470 nM | 18.71 | 

SMILES | EC50 [1] | EC50 ([2]; P. berghei sporozoites) | EC50 fold shift compared to asexual stage: Liver Stage EC50 [2] | EC50 [2]
COc1ccc(C(=O)C2CC2c2ccc(Cl)cc2)cc1 (stereo not drawn) [MMV665924] | 1600 nM | > 5000 nM | > 6 | 
O=C(NC(c1ccccc1)c1ccc2cccnc2c1O)c1ccccc1 (stereo not drawn) [MMV666080] | 860 nM | 464 nM | 0.55 | 
Cc1nc2ccc3ccc(CNc4ccc(C(=O)CC(CCC(=O)O)C(=O)O)cc4)cc3c2c(=O)[nH]1.Cl (stereo not drawn) [MMV027634] | 64 nM | > 50000 nM | > 2170 | 
Cc1ccc(Oc2ncccc2C(=O)Cc2cccc3cccnc23)c(C)c1 [MMV020746] | 201 nM | 12100 nM | 159.34 | 
COc1cc(-c2nc(-c3ccccc3)c(-c3ccccc3)[nH]2)ccc1OCCN(C)C [MMV027496] | 300 nM | 3170 nM | 28.59 | 
CCCOCc1cc(CN2CCN(c3cccc(Cl)c3)CC2)c(O)c2ncccc12 [MMV000787] | 1040 nM | 600 nM |  | 
COC(=O)c1ccc(C2C3=C(O)CC(c4ccc(F)cc4)CC3=Nc3ccccc3N2C(=O)c2ccccc2)cc1 (stereo not drawn) [MMV011438] | 322 nM | 621 nM | 1.44 | 
FC(F)(F)c1cccc(Nc2nc3ccccc3nc2Nc2cccc(C(F)(F)F)c2)c1 [MMV665794] | 73 nM | 375 nM |  | 
Brc1ccc(Nc2nc3ccccc3nc2Nc2ccc(Br)cc2)cc1 [MMV007224] | 154 nM | 514 nM | 2.32 | 
Nc1ncc(-c2cn[nH]c2)cc1-c1nc2ccc(F)cc2[nH]1 [MMV023367] | 445 nM | 611 nM | 2.02 | 
OC(CNC1CCCCC1)Cn1c2ccc(I)cc2c2cc(I)ccc21 (stereo not drawn) [MMV665882] | 207 nM | 3060 nM | 42.02 | 
Cc1ccc(S(=O)(=O)n2cc(-c3ccnc(N)c3)c3cc(Br)cnc32)cc1 [MMV024114] | 1050 nM | 5940 nM | 22.40 | 
Cl.c1ccc2c(NCCCCCCNc3c4c(nc5ccccc35)CCCC4)c3c(nc2c1)CCCC3 [MMV019555] | 280 nM |  |  | 319 nM
COc1cc(C(=O)ON=C(N)Cc2cccc3ccccc23)cc(OC)c1OC [MMV666687] | 180 nM | 21000 nM |  | 
COc1cc2cc(C(=O)Nc3ccccc3)c(N)nc2cc1OC [MMV006767] | 2870 nM | > 50000 nM |  | 
O=C(NCC(CCCN1CCC(c2c[nH]c3ccccc23)CC1)c1ccccc1)Nc1ccc(Cl)c(Cl)c1 (stereo not drawn) [MMV029272] | 415 nM | 1800 nM | 13.22 | 
CCOc1cc2c(cc1OCC)C(c1cc(Cl)ccc1O)NCC2 (stereo not drawn) [MMV000478] | 1440 nM | > 5000 nM | > 5 | 
CN(C)CCCNCc1ccc(-c2ccc(Cl)c(Cl)c2)o1 [MMV673964] | 569 nM | 8990 nM | 14.81 | 
O=C(Nc1ccccc1O)c1ccc(Oc2cccc(C(=O)Nc3ccccc3O)c2)cc1 [MMV665888] | 1040 nM | 648 nM | 0.54 | 
c1cncc(-c2cc(N3CCC(CN4CCOCC4)CC3)nc(-c3ccncc3)n2)c1 [MMV668399] | 86 nM | 7040 nM |  | 
CCCCCCCN(Cc1ccc(OC(C)(C)C(=O)OCC)cc1)C(=O)Nc1ccc(Cl)cc1OCC [MMV021735] | 891 nM | 2690 nM | 7.03 | 
